# Measured values reported in patent US20240317752A1, “6-SUBSTITUTED-9H-PURINE DERIVATIVES AND RELATED USES” (Black Diamond Therapeutics, Inc., priority 2021, published 2024).
# Target: T1, BaF3 BRAF-KIAA1549 fusion cells (Homo sapiens, UniProt P15056)
# T1 construct: The BRAF-KIAA1549 fusion mutant was subcloned into pMXs-IRES-Blasticidin (RTV-016, Cell Biolabs, San Diego, CA); fused on or other part: Q9HCM3 (UPF0606 protein KIAA1549)
# Assay: BaF3 BRAF-KIAA1549 fusion cell proliferation assay (CellTiterGlo)
# Type: cell-based
# Conditions: 96 hours incubation, potency code
# Description: Retroviral Production: The BRAF-KIAA1549 fusion mutant was subcloned into pMXs-IRES-Blasticidin (RTV-016, Cell Biolabs, San Diego, CA). Retrovirus was produced by transfection of HEK 293T cells with the retroviral BRAF mutant expression vector pMXs-IRES-Blasticidin (RTV-016, Cell Biolabs), pCMV-Gag-Pol vector and pCMV-VSV-G-Envelope vector. Briefly, HEK 293T cells were plated in Poly-D-lysine coated 6-well plate (2.5×10^5 cells per well) and incubated overnight. The next day, retroviral plasmids (1 μg of BRAF-KIAA fusion mutant, 0.32 μg of pCMV-Gag-Pol and 0.165 μg pCMV-VSV-G) were mixed in 300 μL of Optimem (31985, Life Technologies). The mixture was incubated at room temperature for 5 minutes and then added to Optimem containing transfection reagent Lipofectamine (11668, Invitrogen) and incubated for 20 minutes. The mixture was then added dropwise to HEK 293T cells. The next day the medium was replaced with fresh culture medium and retrovirus was harvested at 24 hours.
# Generation of BRAF-KIAA1549 fusion stable cell line: BaF3 cells were plated in V-bottom 96 well plate (COSTAR #3894) in 80 μL of RPMI/10% FBS and 0.01 ng/ml mouse IL-3; supplemented with 8 μg/mL polybrene (4×10^4 cells/well). Cells were transduced with 20 μL of BRAF-KIAA1549 fusion viral supernatant by centrifuging for 30 minutes at 1000 rpm. Cells were placed in a 37° C. incubator overnight. Next day 100 μL of RPMI/10% FBS and 0.01 ng/ml mouse IL-3 was added. After 24 hours, 100 μL of cells were transferred to a 24 well plate containing 900 μL of RPMI/10% FBS and 15 μg/mL Blasticidin. Contents of the 24 well plate were sampled for cell viability via CellTiterGlo (Promega) over a 2-week period.
# Assay for cell proliferation: BaF3 BRAF-KIAA1549 fusion cells were resuspended at 1.5×10^5c/mL in RPMI containing 10% Heat Inactivated FBS, 1% L-glutamine and dispensed in duplicate ([…]) into 384 well plates. To determine the effect of compound on cell proliferation, BaF3 BRAF-KIAA1549 fusion cells were incubated for 96 hours in the presence of vehicle control (DMSO) or compound at varying concentrations. Inhibition of cell growth was determined by luminescent quantification (Envision by Perkin Elmer) of intracellular ATP content using CellTiterGlo (Promega), according to the protocol provided by the manufacturer. To determine the IC50 values, the vehicle-treated cells were normalized as viable cells and analyzed using the CDD Vault, Collaborative Drug Discovery, Burlingame, CA (the Levenberg-Marquardt algorithm; Levenberg, K., […]; Marquardt, D., 1963).
# Tables A1 and A2 assign each compound a code for potency in the BaF3 BRAF-KIAA1549 fusion cell proliferation assay: A, B, C, or D. According to the code, A represents an IC50 value <20 nM; B represents an IC50 value ≥20 nM and <100 nM; C represents an IC50 value ≥100 nM and <500 nM; and D represents an IC50 value ≥500 nM.
# T1 sequence (P15056 whole entry, change not shown, the tested form may be a part): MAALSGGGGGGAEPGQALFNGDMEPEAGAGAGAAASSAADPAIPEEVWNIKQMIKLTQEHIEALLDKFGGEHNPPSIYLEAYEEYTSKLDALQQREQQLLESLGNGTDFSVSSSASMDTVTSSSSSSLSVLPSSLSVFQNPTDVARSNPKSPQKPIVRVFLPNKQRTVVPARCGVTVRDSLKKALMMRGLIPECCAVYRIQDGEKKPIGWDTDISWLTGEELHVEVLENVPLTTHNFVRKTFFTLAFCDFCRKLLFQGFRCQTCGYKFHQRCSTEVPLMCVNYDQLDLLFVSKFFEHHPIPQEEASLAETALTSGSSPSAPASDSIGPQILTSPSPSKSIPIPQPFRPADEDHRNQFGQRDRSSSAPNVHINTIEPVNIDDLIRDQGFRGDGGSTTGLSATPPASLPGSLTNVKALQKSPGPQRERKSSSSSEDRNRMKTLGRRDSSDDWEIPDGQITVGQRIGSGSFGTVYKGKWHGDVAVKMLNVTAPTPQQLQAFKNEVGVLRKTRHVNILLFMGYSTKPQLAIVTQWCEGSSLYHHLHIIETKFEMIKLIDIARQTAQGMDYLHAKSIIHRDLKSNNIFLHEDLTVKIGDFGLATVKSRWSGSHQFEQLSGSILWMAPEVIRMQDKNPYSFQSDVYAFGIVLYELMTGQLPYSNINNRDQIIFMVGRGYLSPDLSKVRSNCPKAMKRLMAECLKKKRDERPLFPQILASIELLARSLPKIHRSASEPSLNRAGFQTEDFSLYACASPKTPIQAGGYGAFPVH
row,GI50 [nM],SMILES
1,< 20,"Cc1ccc(NC(=O)c2nccc(C(F)(F)F)c2Cl)cc1Nc1ncccc1-c1ncnc2[nH]cnc12 [IA-106, N-(3-(3-(9H-purin-6-yl)pyridin-2-ylamino)-4-methylphenyl)-3-chloro-4-(trifluoromethyl)picolinamide]"
2,< 20,"Cc1ccc(NC(=O)C[C@@H]2CCC[C@H](C(F)(F)F)C2)cc1Nc1ncccc1-c1ncnc2[nH]cnc12 (single isomer, unassigned) [IA-138]"
3,100 to 500,"Cc1ccc(NC(=O)C[C@H]2CCN[C@H](C(F)(F)F)C2)cc1Nc1ncccc1-c1ncnc2[nH]cnc12 (single isomer, unassigned) [IA-143]"
4,20 to 100,"Cc1ccc(NC(=O)c2ccc(Cl)c(OC(F)(F)F)c2)cc1Nc1ncccc1-c1ncnc2[nH]cnc12 [Compound I-69, N-(3-((3-(9H-purin-6-yl)pyridin-2-yl)amino)-4-methylphenyl)-4-chloro-3-(trifluoromethoxy)benzamide]"
5,20 to 100,"Cc1ccc(C(=O)Nc2cc(C(F)(F)F)ccn2)cc1Nc1ncccc1-c1ncnc2[nH]cnc12 [Compound I-34, 3-((3-(9H-purin-6-yl)pyridin-2-yl)amino)-4-methyl-N-(4-(trifluoromethyl)pyridin-2-yl)benzamide]"
6,< 20,"Cc1ccc(NC(=O)c2ccnc(C3COC3)c2)cc1Nc1ncccc1-c1ncnc2[nH]cnc12 [Compound I-32, N-(3-((3-(9H-purin-6-yl)pyridin-2-yl)amino)-4-methylphenyl)-2-(oxetan-3-yl)isonicotinamide]"
7,20 to 100,"Cc1ncc(C(=O)Nc2cccc(C(F)(F)F)c2)cc1Nc1ncccc1-c1ncnc2[nH]cnc12 [Compound I-52, 5-((3-(9H-purin-6-yl)pyridin-2-yl)amino)-6-methyl-N-(3-(trifluoromethyl)phenyl)nicotinamide]"
8,20 to 100,"Cc1ccc(NC(=O)c2cc(C(F)F)c(C)cn2)cc1Nc1ncccc1-c1ncnc2[nH]cnc12 [IA-90, N-(3-((3-(9H-purin-6-yl)pyridin-2-yl)amino)-4-methylphenyl)-4-(difluoromethyl)-5-methylpicolinamide]"
9,≥ 500,"Cc1ccc(NC(=O)c2cc(C#N)c(Cl)cn2)cc1Nc1ncccc1-c1ncnc2[nH]cnc12 [Compound I-39, N-(3-((3-(9H-purin-6-yl)pyridin-2-yl)amino)-4-methylphenyl)-5-chloro-4-cyanopicolinamide]"
10,< 20,"Cc1ccc(NC(=O)c2cccc(N(C)C)c2)cc1Nc1ncccc1-c1ncnc2[nH]cnc12 [Compound I-80, N-(3-((3-(9H-purin-6-yl)pyridin-2-yl)amino)-4-methylphenyl)-3-(dimethylamino)benzamide]"
11,100 to 500,"Cc1ccc(C(=O)Nc2cc(C(C)(C)C)nn2C2CC2)cc1Nc1ncccc1-c1ncnc2[nH]cnc12 [Compound I-79, 3-((3-(9H-purin-6-yl)pyridin-2-yl)amino)-N-(3-(tert-butyl)-1-cyclopropyl-1H-pyrazol-5-yl)-4-methylbenzamide]"
12,20 to 100,"Cc1cc(C(F)(F)F)cc(C(=O)Nc2ccc(C)c(Nc3ncccc3-c3ncnc4[nH]cnc34)c2)n1 [IA-93, N-(3-((3-(9H-purin-6-yl)pyridin-2-yl)amino)-4-methylphenyl)-6-methyl-4-(trifluoromethyl)picolinamide]"
13,< 20,"Cc1ccc(NC(=O)CC2CCCCCC2)cc1Nc1ncccc1-c1ncnc2[nH]cnc12 [IA-113, N-(3-((3-(9H-purin-6-yl)pyridin-2-yl)amino)-4-methylphenyl)-2-cycloheptylacetamide]"
14,20 to 100,"Cc1ncc(NC(=O)c2cncc(C(F)(F)F)c2)cc1Nc1ncccc1-c1ncnc2[nH]cnc12 [Compound I-18, N-(5-(3-(9H-purin-6-yl)pyridin-2-ylamino)-6-methylpyridin-3-yl)-5-(trifluoromethyl)nicotinamide]"
15,≥ 500,"Cc1ccc(NC(=O)C23CC(Cl)(C2)C3)cc1Nc1ncccc1-c1ncnc2[nH]cnc12 [Compound I-28, N-(3-(3-(9H-purin-6-yl)pyridin-2-ylamino)-4-methylphenyl)-3-chlorobicyclo[1.1.1]pentane-1-carboxamide]"
16,20 to 100,"Cc1ccc(NC(=O)c2ccc3c(c2)OCO3)cc1Nc1ncccc1-c1ncnc2[nH]cnc12 [Compound I-74, N-(3-((3-(9H-purin-6-yl)pyridin-2-yl)amino)-4-methylphenyl)benzo[d][1,3]dioxole-5-carboxamide]"
17,< 20,"Cc1nc2c(-c3cccnc3Nc3cc(NC(=O)c4cc(C(F)(F)F)ccn4)ccc3C)ncnc2[nH]1 [IA-126, N-(4-methyl-3-((3-(8-methyl-9H-purin-6-yl)pyridin-2-yl)amino)phenyl)-4-(trifluoromethyl)picolinamide]"
18,< 20,"Cc1c(F)cc(NC(=O)c2ccnc(C3(F)CC3)c2)cc1Nc1ncccc1-c1ncnc2[nH]cnc12 [Compound I-72, N-(3-((3-(9H-purin-6-yl)pyridin-2-yl)amino)-5-fluoro-4-methylphenyl)-2-(1-fluorocyclopropyl)isonicotinamide]"
19,100 to 500,"Cc1ccc(NC(=O)CC2CCCOCC2)cc1Nc1ncccc1-c1ncnc2[nH]cnc12 (stereo not shown) [IA-102, N-(3-(3-(9H-purin-6-yl)pyridin-2-ylamino)-4-methylphenyl)-2-(oxepan-4-yl)acetamide]"
20,< 20,"Cc1ccc(NC(=O)c2ccc(C(F)(F)F)c(C#N)c2)cc1Nc1ncccc1-c1ncnc2[nH]cnc12 [Compound I-42, N-(3-((3-(9H-purin-6-yl)pyridin-2-yl)amino)-4-methylphenyl)-3-cyano-4-(trifluoromethyl)benzamide]"
21,20 to 100,"Cc1ccc(NC(=O)Cn2cnc(C(F)(F)F)n2)cc1Nc1ncccc1-c1ncnc2[nH]cnc12 [Compound I-78, N-(3-((3-(9H-purin-6-yl)pyridin-2-yl)amino)-4-methylphenyl)-2-(3-(trifluoromethyl)-1H-1,2,4-triazol-1-yl)acetamide]"
22,100 to 500,"Cc1ccc(NC(=O)C23CC(C(F)(F)F)(CO2)C3)cc1Nc1ncccc1-c1ncnc2[nH]cnc12 [IA-108, N-(3-(3-(9H-purin-6-yl)pyridin-2-ylamino)-4-methylphenyl)-4-(trifluoromethyl)-2-oxabicyclo[2.1.1]hexane-1-carboxamide]"
23,20 to 100,"Cc1ccc(NC(=O)CC2CCOC(C(F)(F)F)C2)cc1Nc1ncccc1-c1ncnc2[nH]cnc12 (stereo not shown) [Compound I-75, N-(3-((3-(9H-purin-6-yl)pyridin-2-yl)amino)-4-methylphenyl)-2-(2-(trifluoromethyl)tetrahydro-2H-pyran-4-yl)acetamide]"
24,< 20,"Cc1ccc(NC(=O)c2nccc(C(F)(F)F)c2C)cc1Nc1ncccc1-c1ncnc2[nH]cnc12 [Compound I-65, N-(3-((3-(9H-purin-6-yl)pyridin-2-yl)amino)-4-methylphenyl)-3-methyl-4-(trifluoromethyl)picolinamide]"
25,20 to 100,"COc1nc2c(-c3nccnc3Nc3cc(NC(=O)c4cc(C(F)(F)F)ccn4)ccc3C)ncnc2[nH]1 [IA-122, N-(3-(3-(8-methoxy-9H-purin-6-yl)pyrazin-2-ylamino)-4-methylphenyl)-4-(trifluoromethyl)picolinamide]"
26,< 20,"Cc1ccc(NC(=O)c2cc(C3(C#N)CCC3)ccn2)cc1Nc1ncccc1-c1ncnc2[nH]cnc12 [Compound I-64, N-(3-((3-(9H-purin-6-yl)pyridin-2-yl)amino)-4-methylphenyl)-4-(1-cyanocyclobutyl)picolinamide]"
27,< 20,"Cc1ccc(NC(=O)CN2CC[C@@H](C(F)(F)F)C2)cc1Nc1ncccc1-c1ncnc2[nH]cnc12 [IA-111, (R)—N-(3-(3-(9H-purin-6-yl)pyridin-2-ylamino)-4-methylphenyl)-2-(3-(trifluoromethyl)pyrrolidin-1-yl)acetamide]"
28,< 20,"Cc1nc2c(-c3cccnc3Nc3cc(NC(=O)c4cc(C(F)(F)F)c(F)cn4)ccc3C)ncnc2[nH]1 [IA-128, 5-fluoro-N-(4-methyl-3-((3-(8-methyl-9H-purin-6-yl)pyridin-2-yl)amino)phenyl)-4-(trifluoromethyl)picolinamide]"
